Assays:
[1] = Microsomal metabolic stability screen, pooled human liver microsomes (HLM); assay type: in vitro ADME; conditions: 10 µM prodrug, 0.1 mg/mL HLM, NADPH regenerating system, 37 °C, 60 min, n = 2; LOD 0.1 ng/mL
Method: Human liver microsome (HLM) stock solution preparation. HLM (0.5 mL) stock was added to PBS solution (9.5 mL). Final concentration; 1 mg/mL. The PBS solution was prepared by addition of one USP PBS tablet (Sigma-Aldrich catalogue number P4417) dissolved in 200 mL deionised water.
(§1) Microsomes, NADPH regenerating solutions A and B were thawed rapidly to 37 °C, then kept on wet ice until ready for use. A stock solution of the prodrug (5 mM) was prepared in ACN. To a 1.7 mL microcentrifuge tube in a 37 °C water bath was added the phosphate buffered saline solution (349 µL), the NADPH regenerating solution A (50 µL), the NADPH regenerating solution B (50 µL), and the prodrug solution (1 µL). After incubation for 5 min, microsome solution (50 µL) was added and the metabolism was initiated. The tube was vortex mixed. The final concentrations in this solution was 10 µM prodrug, 0.1 mg/mL HLM or 0.02 mg/mL HIM, 1.3 mM NADP^+, 0.4 U/mL glucose-6-phosphate dehydrogenase and 0.2% organic solvent. This solution was incubated for 60 min at 37 °C. The reaction was quenched by addition of acetonitrile (500 µL). The mixture was centrifuged at 10,000 × g for 10 min. The supernatant was analyzed by LC-MS analysis.
After passing through the intestinal membrane into the portal circulation the prodrug quickly enters the liver. This metabolic condition was simulated in the present work by using pooled human liver microsomes (HLM).

[2] = Aqueous pH stability profile at 40 °C
Nicotinic acetylcholine = experiment: Pharmacological screen, nicotinic acetylcholine receptor binding
Method: 2.4. Plasma LLOQ/Precision […]
of 10 ng/mL. […] ACN (200 µL) […]
was added and the solution was vortex mixed. The remaining mixture was centrifuged at 10,000 rpm […]
The final concentration was 1 ng/mL. […]
signal to noise ratio of three.
2.6. Brain LLOQ Accuracy/Precision
Aliquots (5 × 200 µL) were […]
transferred to 1.5 mL microcentrifuge tubes.
ACN (300 µL) was added and […]
the solution was vortex mixed. […] 200 µL
The solution was vortex mixed again and analysed by HPLC. Final concentrations were 12.5, 125 ng/mL.
2.7. Pharmacological Screening of N-Methyl Bupropion and Bupropion […]
nicotinic acetylcholine receptor [5,6] and SERT [7,8]. The specific nicotinic acetylcholine assays are […]
and nicotinic acetylcholine α7 [12].
3. Results Method Validation […]
diluent solutions separately.

[3] = Screening incubation in USP simulated gastric fluid (SGF); conditions: incubation 37 °C, one hour, n = 2; <LOD = bupropion, its metabolites or other prodrugs not detected; LOD 0.1 ng/mL
Method: USP simulated gastric fluid preparation. Sodium chloride (0.02 g) and purified pepsin (0.032 g) that is derived from porcine stomach mucosa with an activity of 800 to 2,500 units per mg of protein were dissolved in 0.07 mL of concentrated hydrochloric acid and sufficient water to make 10 mL.
(§2) Pepsin is most efficient at cleaving peptide bonds between hydrophobic and aromatic amino acids such as phenylalanine, tryptophan and tyrosine. In order to simulate the pH and digestive enzymes of the stomach, USP simulated gastric fluid (SGF) was used. Conditions in the intestine were simulated using USP simulated intestinal fluid (SIF).
(§3) One hour metabolism or hydrolysis was considered to be sufficient time to generate detectable levels of metabolites, bearing in mind the likely exposure time in vivo. A blank media was used in each analysis to subtract a background from each LC-MS sample chromatogram. A t0 sample was also used to identify impurities related to each prodrug.
(§4) After one hour incubation of each compound in the selected media, the mixture was quenched with acetonitrile and the sample was centrifuged to remove precipitated proteins. The supernatant solution was analyzed immediately by LC-MS using data dependent acquisition analysis.
(§5) This transformation is commonly used to assess activity of oxidative enzyme CYP2B6 in human liver and intestinal microsomes. […] It was important to report if any of the other prodrugs were detected if for instance a possible multistep-prodrug was found.

[4] = target: T1, Norepinephrine transporter (NET) (Homo sapiens, UniProt P23975); experiment: Pharmacological screen, norepinephrine transporter; assay type: binding
T1 construct: MDS Pharma Services Taiwan

[5] = Microsomal metabolic stability screen, pooled human intestinal microsomes (HIM); assay type: in vitro ADME; conditions: 10 µM prodrug, 0.02 mg/mL HIM, NADPH regenerating system, 37 °C, 60 min, n = 2; LOD 0.1 ng/mL
Method: Human intestinal microsome (HIM) stock solution preparation. HIM (0.2 mL) stock was added to PBS solution (9.8 mL). Final concentration; 0.2 mg/mL.
as §1
The intestinal cells contain cytochome P450 enzymes, flavin monoxygenases, esterases and UDP glucuroyl transferases. Condition III involved the use of pooled human intestinal microsomes (HIM) in order to simulate the potential metabolism that occurs during absorption and passage through the intestinal wall.

[6] = target: T2, Dopamine active transporter (DAT) (Homo sapiens, UniProt Q01959); experiment: Pharmacological screen, dopamine transporter; assay type: binding
T2 construct: MDS Pharma Services Taiwan

[7] = Michaelis-Menten kinetics of bupropion formation in pooled human liver microsomes; assay type: in vitro ADME; conditions: pooled HLM 0.1 mg/mL, substrate 1–500 µM, 20 min, 37 °C, n = 6
Method: Microsomes, NADPH regenerating solutions A and B were thawed rapidly to 37 °C, and then kept on ice until ready for use. Substrate solutions were prepared (1–500 µM) where the maximum concentration of DMSO was 1%, and the concentration of microsomes, NADPH regenerating solution B and phosphate buffer was fixed. After incubation for 5 min, NADPH regenerating solution A was added and the metabolism was initiated. Final volume was 100 μL. The tube was inverted twice and vortex mixed. The final concentrations of prodrug in this solution was 1–500 µM, HLM (0.1 mg/mL) or HIM (0.02 mg/mL), NADP^+ (1.3 mM), glucose-6-phosphate dehydrogenase (0.4 U/mL) and 1.0% DMSO. This solution was incubated for 20 min at 37 °C. The reaction was quenched by addition of 100 µL of acetonitrile. The mixture was centrifuged at 10,000 × g for 10 min. The supernatant was analyzed by LC-MS analysis.

[8] = Screening incubation in pooled human plasma (PHP); assay type: in vitro ADME; conditions: incubation 37 °C, one hour, n = 2; <LOD = bupropion, its metabolites or other prodrugs not detected; LOD 0.1 ng/mL
Text: Pooled human plasma solution preparation. Citrated human plasma was pooled together from three separate donors.
Finally, pooled human plasma (PHP) was used to evaluate the prodrug stability/activation in blood since the plasma fraction contains much of the hydrolase activity in blood.

[9] = target: T3, Serotonin transporter (SERT) (Homo sapiens, UniProt P31645); experiment: biochemical
[10] = target: T3, Serotonin transporter (SERT)
[11] = target: Muscarinic non -selective, central; experiment: Pharmacological screen, muscarinic receptor binding
[12] = Screening incubation in USP simulated intestinal fluid (SIF); conditions: incubation 37 °C, one hour, n = 2; <LOD = bupropion, its metabolites or other prodrugs not detected; LOD 0.1 ng/mL
Method: USP simulated intestinal fluid preparation. Monobasic potassium phosphate (0.068 g) was dissolved in 2.5 mL of water and mixed. Sodium hydroxide (0.77 mL of 0.2 M) and water (5.0 mL) were added. Pancreatin (0.1 g) was added and the pH adjusted with either 0.2 M sodium hydroxide or 0.2 M hydrochloric acid to a pH of 6.8 ± 0.1. The solution was diluted to 10 mL with water.
as §2, §3, §4, §5

T1 sequence (P23975 whole entry): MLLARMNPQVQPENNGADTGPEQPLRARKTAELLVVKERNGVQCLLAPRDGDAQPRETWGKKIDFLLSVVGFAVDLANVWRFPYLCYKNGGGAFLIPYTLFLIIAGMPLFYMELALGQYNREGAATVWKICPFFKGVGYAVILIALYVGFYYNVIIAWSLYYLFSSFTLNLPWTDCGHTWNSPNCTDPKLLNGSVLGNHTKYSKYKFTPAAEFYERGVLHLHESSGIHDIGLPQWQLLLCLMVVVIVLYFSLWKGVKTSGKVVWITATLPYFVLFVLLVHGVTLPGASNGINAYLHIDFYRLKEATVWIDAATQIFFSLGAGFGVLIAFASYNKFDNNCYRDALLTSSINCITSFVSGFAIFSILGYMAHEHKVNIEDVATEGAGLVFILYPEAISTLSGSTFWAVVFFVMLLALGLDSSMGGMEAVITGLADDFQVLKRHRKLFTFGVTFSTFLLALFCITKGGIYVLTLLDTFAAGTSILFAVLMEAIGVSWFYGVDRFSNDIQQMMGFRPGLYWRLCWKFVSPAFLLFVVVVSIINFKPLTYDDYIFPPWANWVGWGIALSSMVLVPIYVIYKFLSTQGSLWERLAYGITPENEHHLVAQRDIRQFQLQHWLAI
T2 sequence (Q01959 whole entry): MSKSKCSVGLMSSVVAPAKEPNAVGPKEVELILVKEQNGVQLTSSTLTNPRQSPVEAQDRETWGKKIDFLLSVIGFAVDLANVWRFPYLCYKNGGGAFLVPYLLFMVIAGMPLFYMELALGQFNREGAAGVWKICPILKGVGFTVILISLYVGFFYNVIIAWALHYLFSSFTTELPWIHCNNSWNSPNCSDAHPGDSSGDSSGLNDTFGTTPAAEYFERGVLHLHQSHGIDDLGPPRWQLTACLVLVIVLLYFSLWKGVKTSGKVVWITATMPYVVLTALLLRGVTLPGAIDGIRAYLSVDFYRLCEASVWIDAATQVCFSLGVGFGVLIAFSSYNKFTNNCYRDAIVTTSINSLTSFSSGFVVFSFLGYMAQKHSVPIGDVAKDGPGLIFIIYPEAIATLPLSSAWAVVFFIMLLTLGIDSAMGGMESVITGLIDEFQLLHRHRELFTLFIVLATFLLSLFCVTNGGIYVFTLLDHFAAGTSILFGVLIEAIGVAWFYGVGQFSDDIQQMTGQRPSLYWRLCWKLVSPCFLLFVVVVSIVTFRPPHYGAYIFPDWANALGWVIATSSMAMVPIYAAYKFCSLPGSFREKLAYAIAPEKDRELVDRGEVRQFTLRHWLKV
T3 sequence (P31645 whole entry): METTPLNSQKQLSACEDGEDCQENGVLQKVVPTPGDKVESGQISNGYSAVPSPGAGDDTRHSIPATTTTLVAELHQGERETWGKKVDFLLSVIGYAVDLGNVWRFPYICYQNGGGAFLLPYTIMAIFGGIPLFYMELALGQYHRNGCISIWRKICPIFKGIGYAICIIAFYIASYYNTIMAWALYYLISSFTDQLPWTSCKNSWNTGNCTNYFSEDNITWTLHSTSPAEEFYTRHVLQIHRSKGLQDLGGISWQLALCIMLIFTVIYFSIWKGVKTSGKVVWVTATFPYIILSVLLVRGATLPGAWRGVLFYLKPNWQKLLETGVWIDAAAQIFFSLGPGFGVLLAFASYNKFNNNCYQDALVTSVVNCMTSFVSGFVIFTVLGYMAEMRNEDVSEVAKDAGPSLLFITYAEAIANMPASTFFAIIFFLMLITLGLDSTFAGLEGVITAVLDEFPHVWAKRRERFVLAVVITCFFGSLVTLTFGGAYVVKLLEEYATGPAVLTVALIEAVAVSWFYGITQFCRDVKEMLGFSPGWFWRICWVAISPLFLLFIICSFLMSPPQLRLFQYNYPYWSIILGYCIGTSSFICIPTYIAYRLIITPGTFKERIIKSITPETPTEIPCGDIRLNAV

CC(C(=O)c1cccc(Cl)c1)N(C)C(C)(C)C (racemic) [Compound 4, Rac-N-methyl bupropion]
Primary product detected in media HLM [1]: bupropion was detected
aqueous degradation rate above pH 5 ([2]; above pH 5): degraded faster than bupropion
aqueous degradation rate above pH 12 ([2]; above pH 12): rate of degradation decreased quite dramatically
aqueous stability / degradation rate below pH 5 ([2]; below pH 5): stable
IC50 (Nicotinic acetylcholine; Nicotinic acetylcholine): 71.6 µM
Ki (Nicotinic acetylcholine; Nicotinic acetylcholine, Cheng and Prusoff): 49.2 µM
activity at the nicotinic acetylcholine receptors, in words (Nicotinic acetylcholine; compared with bupropion): more active than bupropion
Primary product detected in media SGF [3]: <LOD
IC50 [4]: 57.9 µM
Ki [4]: 54.4 µM
nH (Hill coefficient) ([4]; NET): 0.764
activity as norepinephrine reuptake inhibitor, in words ([4]; compared with bupropion): less active than bupropion
Primary product detected in media HIM [5]: bupropion was detected
IC50 [6]: 3.71 µM
Ki [6]: 2.95 µM
nH (Hill coefficient) ([6]; DAT): 0.924
activity as dopamine reuptake inhibitor, in words ([6]; compared with bupropion): less active than bupropion
Vmax of bupropion formation [7]: 900.4 ± 73.8 pmol/min/mg HLM
Vmax of bupropion formation ([7]; listed as N-methylbupropion): 900.4 ± 74 pmol/min/mg HLM
Primary product detected in media PHP [8]: <LOD
IC50 [9]: > 100 µM
effect on the serotonin transporter system, in words [10]: little effect
IC50 [11]: 39.3 µM
Ki ([11]; Cheng and Prusoff): 12.3 µM
Primary product detected in media SIF [12]: <LOD

Reference: publication PMC4035770 (Pharmaceuticals, 2014)
